According to patent publication US5733917A, “Heterocyclic compound” (Taisho Pharmaceutical Co., Ltd., priority 1994, dated 1998):
Where two headings read alike, the source gives them in different places.

Legend:
serotonin 4 receptors = settings: stimulants of serotonin 4 receptors; Alimentary Pharmacology and Therapeutics, vol. 6, page 273, 1992; cited from earlier work
serotonin 4 receptor = molecular target: T1, serotonin 4 receptor (Cavia porcellus, UniProt O70528); assay: Stimulating action test on serotonin 4 receptor: twitch responses in electrically stimulated longitudinal muscle strips of guinea pig ileum; format: cell-based, guinea pig (Hartley)
T1 construct: from tissue; host or cells: ileum longitudinal muscle strips of Hartley guinea pigs
T1 sequence (O70528 whole entry): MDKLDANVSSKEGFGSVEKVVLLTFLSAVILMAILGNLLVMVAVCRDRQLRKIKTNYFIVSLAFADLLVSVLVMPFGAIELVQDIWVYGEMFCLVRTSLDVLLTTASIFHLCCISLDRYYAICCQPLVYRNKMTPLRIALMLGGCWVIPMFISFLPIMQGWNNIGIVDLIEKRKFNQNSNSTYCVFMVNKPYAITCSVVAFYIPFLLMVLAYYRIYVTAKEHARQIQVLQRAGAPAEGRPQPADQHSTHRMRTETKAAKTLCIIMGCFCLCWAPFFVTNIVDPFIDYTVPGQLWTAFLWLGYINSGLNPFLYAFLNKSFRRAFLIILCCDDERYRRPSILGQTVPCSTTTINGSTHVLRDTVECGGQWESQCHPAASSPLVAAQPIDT
Text: Stimulating Action Test on Serotonin 4 Receptor Test Drugs
Test Drug 1: Compound 1 of the present invention
Test Drug 2: The compound described in Japanese Patent Kokai No. 3-197462 represented by the following formula: [drawing 5]
Test Drug 3: The compound described in Japanese Patent Kokai No. 4-226980 represented by the following formula: [drawing 6]
Twitch responses were examined in longitudinal muscle strips of guinea pig according to a modification of the method described in The Journal of Pharmacology and Experimental Therapeutics, vol. 252, page 1378, 1990.
From Hartley guinea pigs, a section of ileum 25 cm in length and proximal to the ileocecal junction was removed. The longitudinal muscle strips obtained from two segments of ileum about 4 cm each in length were used for this test. The longitudinal muscle strips were suspended in Kreb's solution at 32° to 34° C. and bubbled with 95% O2 and 5% CO2 under a load of about 0.8 g. The responses were recorded under an electrical stimulation of 0.2 Hz, 1 msec pulse duration, using force displacement transducers. The longitudinal muscle strips were allowed to stand at supramaximal voltage for about an hour, and thereby were stable. After it was confirmed that the twitch responses were enhanced by 10^-8 M 5-HT, each test drug was examined on its activity for twitch responses. The test was carried out by exposing the strips to cumulative additions of the test drug at least at 45 minute intervals.

gastrointestinal motor = assay: Action on gastrointestinal motor in dogs (strain gauge force transducers, motility index); format: in vivo, Beagle dogs; settings: for Motility Index: dog, gastric motor after feeding
Procedure: Action on Gastrointestinal Motor in Dogs
The test was carried out by a modification of the method described in Gastroenterologia Japonica, vol. 12, page 275, 1977.
Beagle dogs of both sexes weighing 9 to 15 kg were anesthetized with sodium pentobarbital and strain gauge force transducers were sutured on 5 portions, i.e. for determining antral, duodenum, jejunal, ileal and colonel motor responses. A cannula for administering a drug was mounted persistently into the jugular vein. After recovery of the surgery, motor responses of the dog under no-anesthesia without restriction at those portions on the gastrointestinal tract in both during a fasting period and after feeding were determined in the conscious […].
(§1) The compound of the present invention was administered after dissolving in saline aqueous solution.
The motor index is shown in terms of a proportion (%) of a mean value calculated for 15 minutes to a value prior to administration (0 minute). The value for 0 minute was made a mean value for 30 minutes prior to the administration.
Tables 2 and 3 show the activity of the compound of the present invention in doses of 0.3 mg/kg for intravenous route and 1 mg/kg for oral route, respectively, on the gastric motor action after feeding.

gastric emptying = assay: Action on gastric emptying in rats (clonidine-treated, residual rate of glass balls in stomach); format: in vivo, Male wistar rats; settings: rat; for Residual rate in Stomach: relative to clonidine hydrochloride-treated animal
Procedure: Action on Gastric Emptying in Rats
The test was carried out by a modification of the method described in British Journal of Pharmacology, vol. 91, page 263, 1987.
Male wistar rats weighing 170 to 220 g were used after fasting for 24 hours.
Clonidine hydrochloride of 30 μg/kg was administered subcutaneously, and after 30 minutes the compound of the present invention was administered subcutaneously. After 30 minutes 1 ml of glass balls (500 mg/ml) was administered orally. After 30 minutes the glass balls remained in the stomach were recovered and weighed to determine the rate [residual rate in stomach (%)] to the residual amount in the stomach of the clonidine hydrochloride-treated animal.
as §1

[1] = Toxicity examination of mouse single administration (acute toxicity); settings: in vivo, single oral administration, read-out: LD value
Procedure: With respect to toxicity of Compound (1) represented by Formula (I) which is an effective ingredient of the pharmaceutical composition of the present invention, as a result of the toxicity examination of mouse single administration (acute toxicity), the LD value is more than 500 mg/kg by oral administration.

[2] = guinea pig ileum longitudinal muscle strips, electrical stimulation 0.2 Hz, 1 msec, cumulative additions at least at 45 minute intervals, read-out: ED50 (the source's name)

## COc1cc(N)c(Cl)cc1C(=O)NC1CCN(CCCOc2ccc(F)cc2)CC1OC (centres unmarked) [Cisapride]
Serotonin 4 receptors
  gastrointestinal motor functions: accelerate gastrointestinal motor functions

## NCCc1c[nH]c2ccc(O)cc12 [Compound 5-HT]
Serotonin 4 receptor; 10^-8 M 5-HT, confirmation before test drug
  twitch responses: enhanced

## CC(C)n1c(=O)c(C(=O)O[C@H]2C[C@H]3CC[C@@H](C2)N3C)cc2ccccc21 [Compound (1), endo-(8-methyl-8-azabicyclo[3.2.1]oct-3-yl) 1-isopropyl-2(1H)-quinolone-3-carboxylate]
Serotonin 4 receptor
  EC50: 21.3 nM
Gastrointestinal motor; intravenous 0.3 mg/kg, 0 min (value prior to administration, = 100), N = 3
  Motility Index: 100%
Gastrointestinal motor; intravenous 0.3 mg/kg, 15 min, N = 3, p < 0.05
  Motility Index: 247.8%
Gastrointestinal motor; intravenous 0.3 mg/kg, 30 min, N = 3, p < 0.01
  Motility Index: 219.8%
Gastrointestinal motor; intravenous 0.3 mg/kg, 45 min, N = 3, p < 0.01
  Motility Index: 178.8%
Gastrointestinal motor; intravenous 0.3 mg/kg, 60 min, N = 3, p < 0.01
  Motility Index: 162.3%
Gastrointestinal motor; intravenous 0.3 mg/kg, 75 min, N = 3, p < 0.001
  Motility Index: 181.0%
Gastrointestinal motor; intravenous 0.3 mg/kg, 90 min, N = 3
  Motility Index: 166.7%
Gastrointestinal motor; intravenous 0.3 mg/kg, 105 min, N = 3
  Motility Index: 150.1%
Gastrointestinal motor; intravenous 0.3 mg/kg, 120 min, N = 3
  Motility Index: 123.5%
Gastrointestinal motor; oral 1 mg/kg, 0 min (value prior to administration, = 100), N = 3
  Motility Index: 100%
Gastrointestinal motor; oral 1 mg/kg, 15 min, N = 3
  Motility Index: 179.5%
Gastrointestinal motor; oral 1 mg/kg, 30 min, N = 3
  Motility Index: 238.6%
Gastrointestinal motor; oral 1 mg/kg, 45 min, N = 3
  Motility Index: 295.0%
Gastrointestinal motor; oral 1 mg/kg, 60 min, N = 3
  Motility Index: 238.8%
Gastrointestinal motor; oral 1 mg/kg, 75 min, N = 3
  Motility Index: 252.3%
Gastrointestinal motor; oral 1 mg/kg, 90 min, N = 3
  Motility Index: 193.9%
Gastrointestinal motor; oral 1 mg/kg, 105 min, N = 3
  Motility Index: 251.7%
Gastrointestinal motor; oral 1 mg/kg, 120 min, N = 3
  Motility Index: 257.8%
Gastrointestinal motor; oral 1 mg/kg, 135 min, N = 3, p < 0.05
  Motility Index: 220.6%
Gastrointestinal motor; oral 1 mg/kg, 150 min, N = 3
  Motility Index: 158.1%
Gastrointestinal motor; oral 1 mg/kg, 165 min, N = 3
  Motility Index: 201.9%
Gastrointestinal motor; oral 1 mg/kg, 180 min, N = 3, p < 0.05
  Motility Index: 188.9%
Gastrointestinal motor; intravenous and oral administrations, both during the fasting period and after feeding, vehicle alone no influence
  motor action on the gastrointestinal tract: showed acceleration on the motor action on the gastrointestinal tract
Gastric emptying; subcutaneous 0.03 mg/kg, 5 cases
  Residual rate in Stomach: 59.2%
Gastric emptying; subcutaneous 0.1 mg/kg, 5 cases
  Residual rate in Stomach: 50.4%
Gastric emptying; subcutaneous 0.3 mg/kg, 6 cases
  Residual rate in Stomach: 38.7%
Gastric emptying; subcutaneous 1.0 mg/kg, 6 cases
  Residual rate in Stomach: 40.0%
Gastric emptying; subcutaneous administration
  action on gastric emptying: inhibited dose-dependent accelerating action on gastric emptying
[1]
  LD50: > 500 mg/kg

## CN1[C@@H]2CC[C@H]1C[C@@H](OC(=O)c1cc3ccccc3[nH]c1=O)C2 [Test Drug 2]
Serotonin 4 receptor; [2]
  EC50: > 3000 nM

## CCCCn1c(=O)c(C(=O)N[C@H]2C[C@H]3CC[C@@H](C2)N3C)c(O)c2ccccc21 [Test Drug 3]
Serotonin 4 receptor; [2]
  EC50: > 3000 nM

## COc1cc(N)c(Cl)cc1C(=O)NC1CCN2CCCC1C2 (centres unmarked) [renzapride]
Serotonin 4 receptors
  gastrointestinal motor functions: accelerate gastrointestinal motor functions
